Measured values published in patent EP0009655A1, “6-Amino substituted N-pyrrolyl-3-pyridazine amines, their preparation, and pharmaceutically antihypertensive compositions containing them” (priority 1978, dated 1980).

Legend:
renal hypertensive dogs = assay: Antihypertensive activity in conscious renal hypertensive dogs (systolic arterial blood pressure, indirect method on the tail); type: in vivo; conditions: for maximum systolic blood pressure drop / time of maximum systolic blood pressure drop / blood pressure drop after seven hours: dose of 2 mg/kg; for blood pressure drop after seven hours: seven hours after administration
Protocol: The antihypertensive activity of the compounds of the invention was shown in representative tests on spontaneous hypertensive rats and in renal hypertensive dogs. In representative experiments with renal hypertensive dogs, effective amounts(1 to 4 mg/kg) of compounds of examples 3, 4, 5, 6, 8, 13, 14 and 15 were administered p.o. to the conscious hypertensive animals. The systolic arterial blood pressure was measured by the indirect method on the tail before and 1, 3, 5 and 7 hours after treatment.
The drop of the systolic blood pressure ranged between 20 and 70 mm Hg, depending on the specific compound tested and on the time at which the blood pressure was observed. In general the antihypertensive effect started about 3 hours after treatment and the maximum effect was still persistent 7 hours after treatment.

[1] = tested on: spontaneous hypertensive rats (MHR: Milano hypertensive rats); assay: Antihypertensive activity in spontaneous hypertensive rats (systolic blood pressure); type: in vivo; conditions: dose of 5 mg/kg
[2] = Acute toxicity, LD50 p.o.; conditions: mouse, in vivo, po

Row | Structure (SMILES) | drop of the systolic blood pressure (renal hypertensive dogs; 1 mg/kg p.o.) [mm Hg] | drop of the systolic blood pressure (renal hypertensive dogs; 4 mg/kg p.o.) [mm Hg] | maximum systolic blood pressure drop (renal hypertensive dogs) [mm Hg] | time of maximum systolic blood pressure drop (renal hypertensive dogs) | blood pressure drop after seven hours (renal hypertensive dogs) [mm Hg] | blood pressure drop [1] [mm Hg] | LD50 [2] [mg/kg]
1 | Cc1ccc(C)n1Nc1ccc(N2CCOCC2)nn1 [Example 3, N-(2,5-Dimethyl-1H-pyrrol-1-yl)-6-morpholino-3-pyridazineamine] | 50 | 70 | 52 | about three | 48 | 38 | ~800
2 | NNc1nncc2ccccc12 [hydralazine, 1-hydrazinophthalazine, reference compound] | – | – | 41 | about one | 29 | – | –
